From patent publication US20190282701A1, “CONJUGATES OF HYALURONIC ACID AND ANTICANCER COMPOUNDS” (THE UNIVERSITY OF MANCHESTER, priority 2016, published 2019)

Legend:
LNCaP tumor = assay: tumor growth in LNCaP tumor-bearing athymic nude mice; assay type: in vivo; settings: i.v. every 3 day, 21 days
Method: Tumor-bearing mice were prepared by injecting a suspension of LNCaP cells 1×10^6 in saline physiological solution (100 μL) into the subcutaneous dorsa of athymic nude mice (seven weeks old, 20-25 g). After fourteen days of appropriate tumor growth, LNCaP bearing mice were divided into eight groups (n=10 for each group). Treatment was initiated when the tumor volume reached 90 mm^3. The mice were then i.v. injected with 200 μL of the following solutions: […] DMSO to obtain doses of 3, 6, 25 mg/Kg, HAB to obtain a dose of 50 mg/Kg, and DMSO 11% wt. in PBS. Intravenous injections, administered in tail vein, were performed every 3 day for a total period of 21 days of treatment and then sacrificed according to ethical laws in force, following a literature method^1. The tumor size was determined by caliper measurement of the largest and perpendicular diameters during the time of treatment. Tumor volumes were calculated according to the formula: V=a×b^2×0.52, where a is the largest superficial diameter and b is the smallest superficial diameter, according to a literature procedure^17.

[1] = test system: HK1 squamous nasopharynx carcinoma cells; settings: 72 h; cited from earlier work
16-F10 melanoma cells = settings: 72 h; cited from earlier work
[2] = literature; cited from earlier work
MCF7 breast cancer cells = settings: 72 h; cited from earlier work
[3] = test system: NCI-H209 lung cancer cells; settings: 24 h; cited from earlier work
[4] = test system: C66-1 squamous nasopharynx carcinoma cells; settings: 72 h; cited from earlier work
human tumoral cell lines [5] = test system: human tumoral cell lines
HepG2 = assay: hypoxic/normoxic cytotoxicity, HepG2; assay type: cell-based; settings: Homo sapiens, survival at 72 h, n=3, conjugate as TPZ groups
CAL-27 = assay: hypoxic/normoxic cytotoxicity, CAL-27; assay type: cell-based; settings: Homo sapiens, survival at 72 h, n=3, conjugate as TPZ groups
T47D = assay: hypoxic/normoxic cytotoxicity, T47D; assay type: cell-based; settings: Homo sapiens, survival at 72 h, n=3, conjugate as TPZ groups
MIA PACA-2 = assay: hypoxic/normoxic cytotoxicity, MIA PACA-2; assay type: cell-based; settings: Homo sapiens, survival at 72 h, n=3, conjugate as TPZ groups
Hep3B2 = assay: hypoxic/normoxic cytotoxicity, Hep3B2; assay type: cell-based; settings: Homo sapiens, Hep3B, survival at 72 h, n=3, conjugate as TPZ groups
MCF-7 = assay: hypoxic/normoxic cytotoxicity, MCF-7; assay type: cell-based; settings: Homo sapiens, survival at 72 h, n=3, conjugate as TPZ groups
FaDu = assay: hypoxic/normoxic cytotoxicity, FaDu; assay type: cell-based; settings: Homo sapiens, survival at 72 h, n=3, conjugate as TPZ groups
Calu-6 = assay: hypoxic/normoxic cytotoxicity, Calu-6; assay type: cell-based; settings: Homo sapiens, survival at 72 h, n=3, conjugate as TPZ groups
A549 = assay: hypoxic/normoxic cytotoxicity, A549; assay type: cell-based; settings: Homo sapiens, survival at 72 h, n=3, conjugate as TPZ groups
MDA-MB-231 = assay: hypoxic/normoxic cytotoxicity, MDA-MB-231; assay type: cell-based; settings: Homo sapiens, survival at 72 h, n=3, conjugate as TPZ groups
SNU-423 = assay: hypoxic/normoxic cytotoxicity, SNU-423; assay type: cell-based; settings: Homo sapiens, survival at 72 h, n=3, conjugate as TPZ groups
SKBr3 = assay: hypoxic/normoxic cytotoxicity, SKBr3; assay type: cell-based; settings: Homo sapiens, survival at 72 h, n=3, conjugate as TPZ groups
Calu-3 = assay: hypoxic/normoxic cytotoxicity, Calu-3; assay type: cell-based; settings: Homo sapiens, survival at 72 h, n=3, conjugate as TPZ groups
MDA-MB-468 = assay: hypoxic/normoxic cytotoxicity, MDA-MB-468; assay type: cell-based; settings: Homo sapiens, survival at 72 h, n=3, conjugate as TPZ groups
human tumoral cell lines [6] = assay: tumour cell viability assays on a panel of human cancer cell lines (overall statements, FIG. 8-10); settings: eight cancer cell lines, 3 h exposure, FIG. 9 and 10
[7] = test system: MDA-MB-231 breast cancer cells; assay: MTT toxicity of curcumin and curcumin-HAB conjugate; assay type: cell-based
Method: MDA-MB-231 breast cancer cells were cultured in RPMI-1640 (Gibco) containing 10% FBS, 1% Pen-Strep, L-Glutamine 2 mM (medium) at 37° C. in a humidified 5% CO2 atmosphere. To determine the toxicity of curcumin and a curcumin-HAB conjugate, cells were seeded in 96-well plates at a density of 1,000 cells per well in medium and left to attach for 24 hours. Medium was then removed and replaced with medium containing various concentrations of curcumin or the curcumin-HA conjugate. […] After this time, drug containing medium was removed, replaced with fresh medium and cells incubated for a further 96 hours. […] Briefly, 50 μl of MTT solution (0.5 mg/ml in cell culture medium) was added to each well. After incubation for a further 4 h at 37° C. the medium was removed from each well and replaced with 200 μl of DMSO to dissolve the formazan crystals. The Absorbance in each well was then read at a wavelength of 450 nm using a Tecan Infinite M200 plate-reader using I-control software. The relative cell viability (%) was calculated by the formula [A]test/[A]control×100, where “[A]test” is the absorbance of the test sample, and “[A]control” is the absorbance of the control cells incubated solely with culture medium.

[8] = HepG2, HepG2, 0.1% O2, 3 h exposure
[9] = HepG2, HepG2, Air, 3 h exposure
[10] = CAL-27, CAL-27, 0.1% O2, 3 h exposure
[11] = CAL-27, CAL-27, Air, 3 h exposure
[12] = MIA PaCa-2, MIA PACA-2, 0.1% O2, 3 h exposure
[13] = MIA PaCa-2, MIA PACA-2, Air, 3 h exposure
[14] = MCF7, MCF-7, 0.1% O2, 3 h exposure
[15] = Calu-6, Calu-6, 0.1% O2, 3 h exposure
[16] = Calu-6, Calu-6, Air, 3 h exposure
[17] = A549, A549, 0.1% O2, 3 h exposure
[18] = MDA-MB-231, MDA-MB-231, 0.1% O2, 3 h exposure
[19] = MDA-MB-231, MDA-MB-231, Air, 3 h exposure
[20] = SNU-423, SNU-423, 0.1% O2, 3 h exposure
[21] = SNU-423, SNU-423, Air, 3 h exposure
[22] = SK-BR-3, SKBr3, 0.1% O2, 3 h exposure
[23] = SK-BR-3, SKBr3, Air, 3 h exposure
[24] = Calu-3, Calu-3, 0.1% O2, 3 h exposure
[25] = Calu-3, Calu-3, Air, 3 h exposure
[26] = MDA-MB-468, MDA-MB-468, 0.1% O2, 3 h exposure
[27] = MDA-MB-468, MDA-MB-468, Air, 3 h exposure

Row | Structure (SMILES) | tissue accumulation of free drug [2] | IC50 (HepG2; [8]) [µM] | IC50 (HepG2; [9]) [µM] | IC50 (CAL-27; [10]) [µM] | IC50 (CAL-27; [11]) [µM] | IC50 (T47D; 0.1% O2, 3 h exposure) [µM] | IC50 (T47D; Air, 3 h exposure) [µM] | IC50 (MIA PACA-2; [12]) [µM] | IC50 (MIA PACA-2; [13]) [µM] | IC50 (Hep3B2; Hep3B2, 0.1% O2, 3 h exposure) [µM] | IC50 (Hep3B2; Hep3B2, Air, 3 h exposure) [µM] | IC50 (MCF-7; [14]) [µM] | IC50 (MCF-7; MCF7, MCF-7, Air, 3 h exposure) [µM] | IC50 (FaDu; 0.1% O2, 3 h exposure) [µM] | IC50 (FaDu; Air, 3 h exposure) [µM] | IC50 (Calu-6; [15]) [µM] | IC50 (Calu-6; [16]) [µM] | IC50 (A549; [17]) [µM] | IC50 (A549; A549, A549, Air, 3 h exposure) [µM] | IC50 (MDA-MB-231; [18]) [µM] | also measured
1 | O=c1c(O)c(-c2ccc(O)c(O)c2)oc2cc(O)cc(O)c12 [quercetin] | strong renal and pulmonary accumulation |  |  |  |  |  |  |  |  |  |  |  |  |  |  |  |  |  |  |  | dose of free quercetin giving results comparable to HABQ (LNCaP tumor): 25 mg/kg; IC50 [1]: 150 to 200 µM; IC50 (16-F10 melanoma cells): 20 µM; IC50 (MCF7 breast cancer cells): 10 µM; IC50 [3]: 5 µM; IC50 [4]: 150 to 200 µM
2 | Nc1n[n+]([O-])c2ccccc2[n+]1[O-] [TPZ, tirapazamine] |  | 13 ± 4.7 | 228 ± 40.1 | 10 ± 2 | 318 ± 50.2 | 17.1 ± 1 | 271 ± 36.4 | 15.3 ± 2.5 | 270 ± 10 | 31.2 ± 2.3 | > 500 | 20 ± 2 | 310 ± 18.3 | 23.3 ± 5.4 | 383 ± 104 | 75 ± 8.6 | 340 ± 11.5 | 81.3 ± 7.2 | 585 ± 26.3 | 30 ± 5 | difference between hypoxic and normoxic cytotoxicity (human tumoral cell lines [5]): larger difference between hypoxic and normoxic cytotoxicity; IC50 (MDA-MB-231; [19]): 341 ± 37.5 µM; IC50 (SNU-423; [20]): 40 ± 5.8 µM; IC50 (SNU-423; [21]): > 500 µM; IC50 (SKBr3; [22]): 6.3 ± 1.3 µM; IC50 (SKBr3; [23]): 218 ± 3.5 µM; IC50 (Calu-3; [24]): 71.7 ± 4.4 µM; IC50 (Calu-3; [25]): 242 ± 6 µM; IC50 (MDA-MB-468; [26]): 7.5 ± 4.1 µM; IC50 (MDA-MB-468; [27]): 232 ± 35 µM
3 | Oc1cc(O)cc(/C=C/c2ccc(O)c(O)c2)c1 [piceatannol] | strong renal and pulmonary accumulation |  |  |  |  |  |  |  |  |  |  |  |  |  |  |  |  |  |  |  | 
4 | O=C(NCCc1ccc(O)c(O)c1)Nc1n[n+]([O-])c2ccccc2[n+]1[O-] [TPZ-DOPA] |  | 3.7 ± 0.7 | 13.8 ± 2.8 | 7.5 ± 4.4 | 18.7 ± 3.1 | 18 ± 3.7 | 35.5 ± 6.4 | 9.6 ± 3.4 | 28 ± 3.7 | 4.8 ± 0.8 | 21.8 ± 2.7 | 15.4 ± 7.09 | 23.1 ± 5.5 | 6.5 ± 0.9 | 18 ± 2 | 8.3 ± 0.9 | 26.7 ± 4.8 | 42.3 ± 1.2 | 83.6 ± 3.7 | 9 ± 1.4 | IC50 (MDA-MB-231; [19]): 23.1 ± 5.3 µM; IC50 (SNU-423; [20]): 6 ± 1 µM; IC50 (SNU-423; [21]): 22.5 ± 6.4 µM; IC50 (SKBr3; [22]): 13 ± 1.3 µM; IC50 (SKBr3; [23]): 17.7 ± 1.5 µM; IC50 (Calu-3; [24]): 16.7 ± 0.9 µM; IC50 (Calu-3; [25]): 20.6 ± 1.1 µM; 72 h viability under hypoxia (0.1% oxygen) vs normoxia (air) (human tumoral cell lines [6]): viability is lower under hypoxia than that under normoxia; IC50 (MDA-MB-468; [26]): 8.2 ± 2.6 µM; IC50 (MDA-MB-468; [27]): 17.5 ± 5 µM
5 | COc1cc(/C=C/C(=O)CC(=O)/C=C/c2ccc(O)c(OC)c2)ccc1O [curcumin] |  |  |  |  |  |  |  |  |  |  |  |  |  |  |  |  |  |  |  |  | maximum cell kill that could be achieved ([7]; MDA-MB-231, 40 μM curcumin, 3 h exposure then 96 h): 40%; concentration of curcumin needed for 40% cell kill ([7]; MDA-MB-231, 3 h exposure then 96 h, conjugate as curcumin contained): 40 µM
